These results are taken from PubChem BioAssay (NCI).

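Each compound was tested at five concentrations against cells in 96-well plates for 48 hours. TGI marks complete inhibition of growth.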

What all share (test): NCI anticancer screen, dose series, 48 h
In experiment [1] the test system is A498 renal.
Experiment [2] deals with BT-549 breast.
Experiment [3] relates to HCC-2998 colon.
For experiment [4], the system named is K-562 leukemia.
For experiment [5], the system named is MALME-3M melanoma.
Experiment [6] deals with MDA-MB-435.
Experiment [7] concerns MOLT-4 leukemia.
Experiment [8] deals with NCI-H226 lung.
Experiment [9] relates to PC-3 prostate.
The test system of experiment [10] is SK-MEL-5 melanoma.
For experiment [11], the system named is T-47D breast.

Turning to `COC(=O)c1ccc2c(c1)sc1nc(-c3ccc(OC)cc3)cn12`, the TGI in experiment [1], in [2], in [3], in [4], in experiment [5] and in [6] was more than 100 µM in each case. Also, the TGI is more than 100 µM in experiment [7]; more than 100 µM in experiment [8]; more than 100 µM in experiment [9]; 53.6 µM in [10]; more than 100 µM in experiment [11].
On to `NC(=O)CCSC(CC(=O)c1ccc(Cl)cc1)c1ccc(Cl)cc1` (centres undefined), for which the TGI in experiment [1] was 97.8 µM; in experiment [2], 80 µM; in experiment [3], 32.7 µM; in [4], more than 100 µM; in experiment [5] it was 66.8 µM; in experiment [6], 39.9 µM. Besides, the TGI in [7] was 35.8 µM; in [8], more than 100 µM; in [9] it was more than 100 µM; in [10] it was 42.9 µM; in [11] it was 57.3 µM.
For `CCCC[C@H]1C(=O)O[C@H](C)[C@H](NC(=O)c2cccc(NC=O)c2OC)C(=O)O[C@@H](C)[C@@H]1OC(=O)CC(C)C` (tested in a mixture with another compound), the TGI in experiment [1] came out at 22.4 µM; in experiment [2] it was 40.1 µM; in experiment [3], 80.6 µM; in experiment [4], 58 µM; in experiment [5], 46.5 µM; in [6], 25.6 µM. Also, the TGI is 51.4 µM in [7]; 35 µM in experiment [8]; 32.6 µM in experiment [9]; 27.7 µM in experiment [10]; 44.5 µM in experiment [11].
For the molecule `Cc1cn(Cc2cn(CC3OC(n4cc(C)c(=O)[nH]c4=O)CC3O)nn2)c(=O)[nH]c1=O` (centres undefined), the TGI in experiment [1], in experiment [2], in experiment [3], in [5], in experiment [6] and in experiment [7] was more than 100 µM in each case. Further, the TGI in experiment [8], in experiment [9], in [10] and in [11] was more than 100 µM each time.
With `O=C(O)CCCN=C(C1=C(O)C(=O)N(c2ccccc2)C1=O)c1ccccc1`, the TGI in [2], in experiment [3], in experiment [4], in [5], in experiment [6] and in experiment [7] was more than 100 µM in each case. Also, the TGI in experiment [8], in [9], in [10] and in experiment [11] was more than 100 µM each time.
As for `COc1cc(/C=C2\N=C(c3ccccc3)N(c3nc4ccc(Sc5ccccc5)cc4[nH]3)C2=O)cc(OC)c1OC`, the TGI is 71.8 µM in experiment [1]; 55.1 µM in experiment [2]; 30.3 µM in experiment [3]; 48.1 µM in experiment [4]; 40.3 µM in experiment [5]; 23 µM in experiment [6]. For the same molecule, the TGI in experiment [7] was 78.5 µM; in [9], more than 100 µM; in experiment [10], 26.3 µM; in experiment [11] it was more than 100 µM.
With `O=c1[nH]c(=O)n(CCOCP(=O)(O)O)nc1Br`, the TGI in [1], in experiment [2], in experiment [3], in [5], in experiment [6] and in experiment [7] was more than 100 µM each time. Moreover, the TGI in [8], in [9], in experiment [10] and in [11] was more than 100 µM in each case.
Regarding `Cc1cc(=O)n2c3c(c4c(cc13)c(CN(C)C)cc(=O)n4C)OC2`, the TGI was more than 100 µM in experiment [1]; 83.8 µM in experiment [2]; 35.9 µM in [3]; more than 100 µM in experiment [4]; 30.4 µM in experiment [5]; more than 58.2 µM in experiment [6]. In addition, the TGI in experiment [7] is more than 100 µM; in experiment [8], more than 67.1 µM; in experiment [9], more than 59.2 µM; in [10], 45.1 µM; in experiment [11], more than 100 µM.
In the case of `Cc1cc2c(cc1Cl)SC(c1ccccc1O)NS2(=O)=O` (centres undefined), the TGI in [1] was more than 100 µM; in [2], more than 100 µM; in experiment [3], more than 100 µM; in [4] it was more than 100 µM; in experiment [5] it was 61.8 µM; in experiment [6], more than 100 µM. Besides, the TGI is more than 100 µM in experiment [7]; more than 100 µM in [8]; more than 100 µM in experiment [9]; more than 100 µM in experiment [10]; 55.1 µM in experiment [11].
Turning to `N#Cc1c(-c2ccc(Cl)cc2)c2c([nH]c1=O)-c1cc([N+](=O)[O-])ccc1CCC2`, the TGI in [1] is 37.7 µM; in experiment [2], 36.3 µM; in [3] it was 35.7 µM; in experiment [4], more than 100 µM; in experiment [5] it was more than 100 µM; in [6], more than 100 µM. The TGI in experiment [7] is more than 100 µM; in experiment [8] it was 44.2 µM; in [9] it was more than 100 µM; in [10], 40.7 µM; in [11] it was more than 100 µM.
On to `O=S(=O)(O)c1ccc2c(N=Nc3ccccc3)c(O)ccc2c1`, for which the TGI in [1], in [2], in experiment [3], in experiment [4], in experiment [5] and in experiment [6] was more than 100 µM in each case. In addition, the TGI in experiment [7], in experiment [8], in [9], in experiment [10] and in experiment [11] was more than 100 µM in each case.
Consider `CCN(CCO)CCNc1ccc(C)c2sc3ccccc3c(=O)c12`, for which the TGI stood at 31.2 µM in experiment [1]; 26.7 µM in experiment [2]; 5.2 µM in experiment [3]; 11.9 µM in experiment [4]; 8.05 µM in [5]; 3.74 µM in experiment [6]. For the same molecule, the TGI came out at 18.8 µM in experiment [7]; 14 µM in [8]; 12.7 µM in [9]; 7.66 µM in experiment [10]; 7.43 µM in experiment [11].
For `COP(=O)(OC)[C@H](O)[C@H]1C[C@@H]1c1ccccc1`, the TGI in experiment [1], in [2], in experiment [3], in experiment [4], in experiment [5] and in experiment [6] was more than 100 µM throughout. Also, the TGI in experiment [7], in [8], in [9], in experiment [10] and in experiment [11] was more than 100 µM throughout.
`O=c1[nH]c2cc([N+](=O)[O-])c(N/N=C/c3ccc(Cl)cc3Cl)c([N+](=O)[O-])c2[nH]1`: the TGI in experiment [1] was 48.7 µM; in experiment [2] it was more than 100 µM; in experiment [4], more than 100 µM; in experiment [5], more than 100 µM; in experiment [6], more than 100 µM; in experiment [7] it was more than 100 µM. Also, the TGI in experiment [8], in experiment [9], in experiment [10] and in experiment [11] was more than 100 µM throughout.
As for `Cn1cc(-c2nnc(-c3ccc(Cl)cc3)[nH]c2=O)c2ccccc21`, the TGI in [1] was more than 61 µM; in experiment [2], more than 100 µM; in experiment [4], more than 100 µM; in [5], more than 25.8 µM; in experiment [6] it was 1.4 µM; in experiment [7] it was 98.8 µM. In addition, the TGI in [8] is 35.4 µM; in [9] it was more than 78.7 µM; in experiment [10], more than 43.7 µM; in [11], more than 100 µM.
Consider `N=C(N)c1ccc(N=Nc2c(O)ccc3cc4c(N=Nc5ccc(C(=N)N)cc5)c(O)ccc4cc23)cc1`, for which the TGI in experiment [2], in experiment [3], in experiment [4], in experiment [5], in experiment [6] and in experiment [7] was more than 100 µM throughout. Besides, the TGI in experiment [8], in [9], in experiment [10] and in experiment [11] was more than 100 µM each time.
For `Cc1ccc2c3c1[C@@H]1O[C@@H]1c1cccc(c1-3)[C@@H]1O[C@H]21`, the TGI in [1] worked out at 43.6 µM; in experiment [2], 32.7 µM; in experiment [4], 37.5 µM; in experiment [5], 31 µM; in experiment [6] it was 31.4 µM; in [7] it was 12.8 µM. The TGI in experiment [8] came out at 84.7 µM; in experiment [9] it was 30.7 µM; in [10], 30.6 µM; in [11], 20.9 µM.
